According to PMC5353646, “Allosteric modulation of peroxisomal membrane protein recognition by farnesylation of the peroxisomal import receptor PEX19” (Nature Communications, 2017):
Values belong to the compound of their own block, whether it stands above or below them. Residues, ends and D or L forms follow the SMILES beside them. *: point of attachment. FITC = O=C1OC2(c3ccc(O)cc3Oc3cc(O)ccc32)c2ccc(NC(=S)*)cc21

What was measured:
[1] = molecular target: FITC-labelled ALDP peptide (62-…-76) (human); assay: fluorescence polarisation; 20 nM FITC-ALDP peptide constant, 12-point titration of PEX19 CTD variants from 1 mM to 0.5 uM; 50 mM Tris pH 8.0, 50 mM NaCl; triplicates
[2] = NMR 13C secondary chemical shifts (peptide conformation); format: physicochemical; settings: C-terminally extended version of the ALDP peptide with additional tryptophan (residue 68 to 82)
From the text: Phe71 aromatic ring protons
Residue number Leucine residue
Supplementary Figure 8: Intermolecular NOEs between PEX19 CTD and the ALDP peptide, and secondary structure of the latter. (a) 1H,1H plane of a 3D ω1-filtered, ω2-edited 13C-NOESY-HSQC experiment of farnesylated PEX19 CTD free (black) and bound to the ALDP peptide (red). Methyl and methylene protons of the unlabeled farnesyl group of the PEX19 CTD show NOEs with protons of the isotope-labeled farnesylated PEX19 CTD (black circles). In the presence of also unlabeled ALDP peptide additional intermolecular methyl-methyl and aliphatic-aromatic NOEs are observed (red circles and below). (b) NMR 13C secondary chemical shifts of a C-terminally extended […]
tion. (c) Due to signal overlap, 5 out of 7 spin systems for leucine residues were assigned. Nevertheless, also the leucines residues adopt a helical conformation.
(also on this page, place not known: (Leu75)(Leu76) (Leu81)(Leu82) 5 LeuC Cα- Cβ [p.p.m.] Cα- Cβ [p.p.m.] c ω2 ω1 1H (p.p.m.) ω1 1H (p.p.m.) QDPro273/Pro274 { - - { 5)

[3] = molecular target: T1, farnesylated wild type PEX19 CTD (Homo sapiens, UniProt P40855); assay: Fluorescence polarization, ALDP peptide binding to farnesylated wild type PEX19 CTD; settings: ratio farnesylated vs non-farnesylated wild type PEX19 CTD
T1 construct: we studied the human PEX19 CTD (residues 161–299) that includes the native C-terminus; hexahistidine (TEV-cleavable) (cleaved yes); made in house; host or cells: Escherichia coli BL21 (DE3); farnesylated in vitro with recombinant S. cerevisiae farnesyl transferase
T1 sequence (P40855 161-299): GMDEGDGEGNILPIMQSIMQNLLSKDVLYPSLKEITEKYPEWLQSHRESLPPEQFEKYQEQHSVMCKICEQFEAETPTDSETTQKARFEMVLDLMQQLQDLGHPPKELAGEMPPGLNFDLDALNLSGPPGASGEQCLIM
Protocol: (§1) ALDP peptide (62-AAKAGMNRVFLQRLL-76) fused N-terminally with fluorescein isothiocyanate (FITC), was purchased from Peptide Specialty Laboratories GmbH. The lyophilized powder was dissolved in 1 ml water resulting in a 5 mM stock solution. Overnight dialysis against buffer containing 50 mM Tris pH 8.0, 50 mM NaCl, removed trifluoroacetate counterions. For the determination of each binding curve a 12 point titration was performed with constant concentration of 20 nM labelled peptide with increasing concentrations of PEX19 CTD variants. Starting concentration of PEX19 CTD was 1 mM with 12 serial dilutions reaching 0.5 μM. Reaction mixtures were then transferred into 96-well Optiplate and measured as triplicates in PerkinElmer EnVision plate reader. […]
(§2) Supplementary Figure 6: ALDP af finity measurement for PEX19 CTD proteins using a fluorescence polarization assay . Polarization plots as a function of protein concentration for the direct titration of PEX19 non-farnesylated (black) and farnesylated (red) forms (wild type and residue spedific mutants) into fluorescein-labeled ALDP peptide. […]
standard deviations for triplicate measurements (n = 3).
(§3) (also on this page, place not known: assay. affinity Fluorescence polarization (mP) wt wtfarn Fluorescence polarization (mP) M179Rfarn 0.00 1.00 Fluorescence polarization (mP) M255Rfarn 0.00 1.00 Fluorescence polarization (mP) I195Kfarn Kd Kd /uni03BCM)

PEX19 CTD M255R = assay: Fluorescence polarization, ALDP peptide binding to PEX19 CTD M255R; set-up: species or system human; settings: with or without farnesylation, FITC-labelled ALDP peptide 20 nM, triplicate (n = 3)
Protocol: as §1, §2, §3

PEX19 CTD I195K = assay: Fluorescence polarization, ALDP peptide binding to PEX19 CTD I195K; set-up: species or system human; settings: with or without farnesylation, FITC-labelled ALDP peptide 20 nM, triplicate (n = 3)
Protocol: as §1, §2, §3

PEX19 CTD M179R = assay: Fluorescence polarization, ALDP peptide binding to PEX19 CTD M179R; set-up: species or system human; settings: with or without farnesylation, FITC-labelled ALDP peptide 20 nM, triplicate (n = 3)
Protocol: as §1, §2, §3

farnesylated PEX19 CTD = molecular target: T2, farnesylated PEX19 CTD (Homo sapiens, UniProt P40855); assay: NMR titration of farnesylated PEX19 CTD with PMP peptides; format: binding; settings: 1H,15N HSQC, 298 K, ALDP at 5 and 10 molar ratio with 100 μM PEX19 CTD, PEX13 at 1:1.5 and 1:0.5 with 50 μM
T2 construct: we studied the human PEX19 CTD (residues 161–299) that includes the native C-terminus; hexahistidine (TEV-cleavable) (cleaved yes); made in house; host or cells: Escherichia coli BL21 (DE3); farnesylated in vitro with recombinant S. cerevisiae farnesyl transferase
T2 sequence (P40855 161-299): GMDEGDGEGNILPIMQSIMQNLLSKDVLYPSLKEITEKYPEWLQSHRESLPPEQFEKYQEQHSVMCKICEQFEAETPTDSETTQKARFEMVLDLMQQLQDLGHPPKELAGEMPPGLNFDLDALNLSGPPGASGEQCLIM

fold increase in affinity over non-farnesylated PEX19 CTD [1]: 7 fold
Compound: farnesylated human PEX19 C-terminal domain (residues 161-299) (from UniProt P40855 161-299) (domain or fragment)

Compound: C-terminally extended: C-terminally extended version of the ALDP peptide, which harbors an additional tryptophan (residue 68 to 82) (NRVFLQRLLWLLRLL; UniProt P33897 68-82, looked up, fragment)
helical conformation of free peptide [2]: largely helical conforma

increase in affinity upon farnesylation of wild type PEX19 CTD [3]: seven | binding to PEX19 CTD M255R (PEX19 CTD M255R): impaired binding | binding to PEX19 CTD I195K (PEX19 CTD I195K): impaired binding | binding to PEX19 CTD M179R (PEX19 CTD M179R): impaired binding
Compound: CSCC[C@H](NC(=O)CNC(=O)[C@H](C)NC(=O)[C@H](CCCCN)NC(=O)[C@H](C)NC(=O)[C@H](C)NC(=S)Nc1ccc2c(c1)C(=O)OC21c2ccc(O)cc2Oc2cc(O)ccc21)C(=O)N[C@@H](CC(N)=O)C(=O)N[C@@H](CCCNC(=N)N)C(=O)N[C@H](C(=O)N[C@@H](Cc1ccccc1)C(=O)N[C@@H](CC(C)C)C(=O)N[C@@H](CCC(N)=O)C(=O)N[C@@H](CCCNC(=N)N)C(=O)N[C@@H](CC(C)C)C(=O)N[C@@H](CC(C)C)C(=O)O)C(C)C [fluorescein-labeled ALDP peptide] ({FITC}-AAKAGMNRVFLQRLL-OH; C-terminus assumed)

NMR chemical shift perturbations / line broadening of farnesylated PEX19 CTD (farnesylated PEX19 CTD): severe line broadening
Compound: HFTKVFSAFALVRTIR [PEX13 peptide, peptide derived from the PMP PEX13]
NMR chemical shift perturbations / line broadening of farnesylated PEX19 CTD (farnesylated PEX19 CTD; listed as PEX13): even stronger NMR chemical shift perturbation changes to helix α1, and significant line broadening in the lid region
